Measurements taken from patent US6197753A, “Pyranoside derivatives” (Boehringer Ingelheim KG, priority 1999, dated 2001).

Molecular target: LTB4 -receptor (Homo sapiens, UniProt Q15722)
Experiment: receptor binding test
Protocol: The compounds according to the invention are potent LTB4 -antagonists.In particular the compound of Example 1 is obtained in vivo as a metabolite of an LTB4 -antagonistic compound and in the receptor binding test it has a Ki -value of 1.0 nM.
The activity ratios may be investigated pharmacologically and biochemically using tests such as those described in WO 93/16036, pp. 15 to 17 --the contents of which are referred to herein.

Chain of LTB4 -receptor (Q15722 whole entry): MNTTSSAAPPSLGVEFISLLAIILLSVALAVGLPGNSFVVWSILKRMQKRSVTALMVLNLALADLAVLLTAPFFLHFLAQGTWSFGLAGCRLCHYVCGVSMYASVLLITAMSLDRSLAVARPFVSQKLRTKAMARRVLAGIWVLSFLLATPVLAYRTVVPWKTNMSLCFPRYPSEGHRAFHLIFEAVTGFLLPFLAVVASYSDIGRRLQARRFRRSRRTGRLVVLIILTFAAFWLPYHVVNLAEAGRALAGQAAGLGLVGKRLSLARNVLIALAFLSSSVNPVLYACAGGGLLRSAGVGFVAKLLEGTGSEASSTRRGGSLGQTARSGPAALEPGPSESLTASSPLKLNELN

Ki: 1 nM
Structure (SMILES): CC(C)(c1ccc(OCc2cccc(COc3ccc(C(=N)N)cc3)c2)cc1)c1ccc(O[C@@H]2O[C@H](C(=O)O)[C@@H](O)[C@H](O)[C@H]2O)cc1 [Example 1, 4-[[3-[[4-[1-(4-hydroxyphenyl)-1-methylethyl]phenoxy]methyl]phenyl]methoxy]-benzenecarboximidamide-O-gluctironide]
